Biological target: T1, PI3Kδ (Homo sapiens, UniProt O00329)
T1 construct: The protein is full length and co-expressed with untagged PIK3R1; GST; purchased Invitrogen PV5274
Assay: PI3Kδ inhibition, modified PIK3CD Adapta TR-FRET assay
Type: biochemical
Details: recombinant GST-tagged full length PIK3CD co-expressed with PIK3R1 (p85α); 2 μM ATP, 50 μM PIP2; read-out: PI3Kδ Inhibition (pIC50) (converted)
Experimental: The activity of compounds as PI3Kδ inhibitors may be determined by a variety of methods, including in vitro and in vivo methods. The following in vitro assay measures a test compound's ability to inhibit PI3Kδ-mediated phosphorylation of PIP2 and ATP.
Recombinant GST-tagged PIK3CD is purchased from Invitrogen (Part Number: PV5274). The protein is full length and co-expressed with untagged PIK3R1, phosphoinositide-3-kinase regulatory subunit 1 (p85α). The protein is stored at −20° C. in 50 mM TRIS (pH 7.5), 150 mM NaCl, 0.5 mM EDTA, 0.02% Triton® X-100, 2 mM DTT, and 50% glycerol.
A modified PIK3CD Adapta® assay (Invitrogen, Carlsbad, Calif.) is used to measure PI3Kδ inhibition of the example compounds. The assay has two phases. In the first phase, kinase reaction components, which include the enzyme (PIK3CD), substrates (PIP2, ATP), test compound (inhibitor), and assay buffer are added to each well, and the reaction is allowed to incubate for a pre-determined period of time. […] In the presence of the inhibitor, the amount of ADP formed by the kinase reaction is reduced, and the resulting intact antibody-tracer interaction maintains a high TR-FRET signal.
The reaction buffer contains 50 mM Hepes (pH 7.5), 3 mM MgCl2, 1 mM EGTA, 100 mM NaCl, 0.03% CHAPS; 2 mM DTT is added fresh prior to each experiment. […] Next, test compounds (2 μL) from a source plate (5% dilution plate) are introduced into the wells. The final DMSO concentration in each assay well is 1%. […] Other wells contain test compounds serially diluted across the plate 11 times for a total of 12 data points. The kinase reactions are carried out at room temperature and are initiated by the addition of 4 μL of solution containing 2 μM ATP and 50 μM PIP2. […] This emission signal is referenced or “ratioed” to the emission from Eu at 620 nm. […] The percent inhibition for a given inhibitor concentration is computed from % conversion for the reaction and for the positive and negative controls.

T1 sequence (O00329 whole entry): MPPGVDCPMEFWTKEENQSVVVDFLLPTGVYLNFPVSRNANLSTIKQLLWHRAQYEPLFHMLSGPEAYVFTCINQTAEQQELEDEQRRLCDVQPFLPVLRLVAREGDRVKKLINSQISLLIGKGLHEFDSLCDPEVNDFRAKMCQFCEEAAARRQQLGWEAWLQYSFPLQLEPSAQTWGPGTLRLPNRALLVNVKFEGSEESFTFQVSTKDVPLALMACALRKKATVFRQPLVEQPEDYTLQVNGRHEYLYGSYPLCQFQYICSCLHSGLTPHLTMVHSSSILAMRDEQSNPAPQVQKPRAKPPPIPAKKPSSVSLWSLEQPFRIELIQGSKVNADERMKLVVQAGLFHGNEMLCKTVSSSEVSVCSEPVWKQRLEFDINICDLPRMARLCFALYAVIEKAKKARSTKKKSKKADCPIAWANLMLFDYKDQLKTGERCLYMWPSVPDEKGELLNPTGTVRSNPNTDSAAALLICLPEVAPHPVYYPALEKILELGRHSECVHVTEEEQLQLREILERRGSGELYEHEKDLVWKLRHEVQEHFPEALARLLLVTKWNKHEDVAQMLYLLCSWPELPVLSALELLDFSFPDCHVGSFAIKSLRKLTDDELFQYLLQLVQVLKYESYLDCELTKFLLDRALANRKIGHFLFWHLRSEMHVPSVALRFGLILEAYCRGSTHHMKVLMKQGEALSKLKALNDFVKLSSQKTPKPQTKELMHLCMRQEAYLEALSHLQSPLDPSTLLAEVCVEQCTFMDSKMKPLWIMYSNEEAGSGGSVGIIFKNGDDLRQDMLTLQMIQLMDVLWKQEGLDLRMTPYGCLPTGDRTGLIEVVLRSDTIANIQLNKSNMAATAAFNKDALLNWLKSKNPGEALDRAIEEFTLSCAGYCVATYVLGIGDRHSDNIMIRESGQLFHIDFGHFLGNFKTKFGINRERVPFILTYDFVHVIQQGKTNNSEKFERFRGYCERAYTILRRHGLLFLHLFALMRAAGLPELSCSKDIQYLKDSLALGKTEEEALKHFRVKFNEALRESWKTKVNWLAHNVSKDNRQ
T1 sequence (P27986 whole entry partner): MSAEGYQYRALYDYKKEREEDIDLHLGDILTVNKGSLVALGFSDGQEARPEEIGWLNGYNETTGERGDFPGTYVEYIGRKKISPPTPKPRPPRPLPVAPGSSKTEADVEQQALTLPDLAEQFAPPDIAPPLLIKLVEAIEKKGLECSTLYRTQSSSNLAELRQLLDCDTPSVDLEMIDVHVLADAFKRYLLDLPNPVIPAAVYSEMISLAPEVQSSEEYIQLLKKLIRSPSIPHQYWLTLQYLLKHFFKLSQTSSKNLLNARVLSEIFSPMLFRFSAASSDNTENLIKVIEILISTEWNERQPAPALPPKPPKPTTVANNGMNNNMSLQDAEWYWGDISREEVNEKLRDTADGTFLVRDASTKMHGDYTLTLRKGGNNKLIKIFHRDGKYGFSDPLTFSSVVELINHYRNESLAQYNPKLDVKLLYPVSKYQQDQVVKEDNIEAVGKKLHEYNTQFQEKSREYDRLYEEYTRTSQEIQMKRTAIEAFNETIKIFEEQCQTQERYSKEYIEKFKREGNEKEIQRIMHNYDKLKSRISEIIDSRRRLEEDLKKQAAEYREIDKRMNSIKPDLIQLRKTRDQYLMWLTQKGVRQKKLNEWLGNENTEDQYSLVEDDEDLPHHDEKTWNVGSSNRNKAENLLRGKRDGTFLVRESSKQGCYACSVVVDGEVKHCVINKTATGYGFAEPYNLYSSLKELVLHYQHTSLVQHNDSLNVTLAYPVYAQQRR

SMILES | IC50
CC(=O)N1CC2COCCN2c2nc(-n3c(C)nc4ccccc43)ncc21 (centres unmarked) [Example 56, 1-(2-(2-methyl-1H-benzo[d]imidazol-1-yl)-6a,7,9,10-tetrahydro-[1,4]oxazino[3,4-h]pteridin-5(6H)-yl)ethanone] | 3160 nM
CC(C)(C)OC(=O)N[C@H]1CC[C@H](CN2CC3COCCN3c3nc(-c4cccc5[nH]ccc45)ncc32)CC1 (some centres unmarked) [Example 57, tert-butyl ((1r,4r)-4-((2-(1H-indol-4-yl)-6a,7,9,10-tetrahydro-[1,4]oxazino[3,4-h]pteridin-5(6H)-yl)methyl)cyclohexyl)carbamate] | 794 nM
N[C@H]1CC[C@H](CN2CC3COCCN3c3nc(-c4cccc5[nH]ccc45)ncc32)CC1 (some centres unmarked) [Example 58, (1r,4r)-4-((2-(1H-indol-4-yl)-6a,7,9,10-tetrahydro-[1,4]oxazino[3,4-h]pteridin-5(6H)-yl)methyl)cyclohexanamine] | 501 nM
N#Cc1ccc(F)c(CN2CC3COCCN3c3nc(-c4cccc5[nH]ccc45)ncc32)c1 (centres unmarked) [Example 60, 3-((2-(1H-indol-4-yl)-6a,7,9,10-tetrahydro-[1,4]oxazino[3,4-h]pteridin-5(6H)-yl)methyl)-4-fluorobenzonitrile] | 31.6 nM
CNC(=O)Nc1ccc(-c2ncc3c(n2)N2CCOCC2CN3Cc2ccccc2)cc1 (centres unmarked) [Example 61, 1-(4-(5-benzyl-5,6,6a,7,9,10-hexahydro-[1,4]oxazino[3,4-h]pteridin-2-yl)phenyl)-3-methylurea] | 631 nM
CNC(=O)Nc1ccc(-c2ncc3c(n2)N2CCOCC2CN3Cc2ccc(C)cc2)cc1 (centres unmarked) [Example 62, 1-methyl-3-(4-(5-(4-methylbenzyl)-5,6,6a,7,9,10-hexahydro-[1,4]oxazino[3,4-h]pteridin-2-yl)phenyl)urea] | 794 nM
CNC(=O)Nc1ccc(-c2ncc3c(n2)N2CCOCC2CN3Cc2ccc(Cl)cc2)cc1 (centres unmarked) [Example 63, 1-(4-(5-(4-chlorobenzyl)-5,6,6a,7,9,10-hexahydro-[1,4]oxazino[3,4-h]pteridin-2-yl)phenyl)-3-methylurea] | 2510 nM
CNC(=O)Nc1ccc(-c2ncc3c(n2)N2CCOCC2CN3CC2CC2)cc1 (centres unmarked) [Example 64, 1-(4-(5-(cyclopropylmethyl)-5,6,6a,7,9,10-hexahydro-[1,4]oxazino[3,4-h]pteridin-2-yl)phenyl)-3-methylurea] | 39.8 nM
CS(=O)(=O)c1ccc(CN2C[C@@H]3COCCN3c3nc(-n4c(C(F)F)nc5ccccc54)ncc32)cc1 [Example 67, (R)-2-(2-(difluoromethyl)-1H-benzo[d]imidazol-1-yl)-5-(4-(methylsulfonyl)benzyl)-5,6,6a,7,9,10-hexahydro-[1,4]oxazino[3,4-h]pteridine] | 5.01 nM
CC(C)(C)OC(=O)CN1C[C@@H]2COCCN2c2nc(-c3cccc4[nH]ccc34)ncc21 [Example 68, (R)-tert-butyl 2-(2-(1H-indol-4-yl)-6a,7,9,10-tetrahydro-[1,4]oxazino[3,4-h]pteridin-5(6H)-yl)acetate] | 50.1 nM
O=C(O)CN1C[C@@H]2COCCN2c2nc(-c3cccc4[nH]ccc34)ncc21 [Example 69, (R)-2-(2-(1H-indol-4-yl)-6a,7,9,10-tetrahydro-[1,4]oxazino[3,4-h]pteridin-5(6H)-yl)acetic acid] | 2510 nM
O=C(CN1C[C@@H]2COCCN2c2nc(-c3cccc4[nH]ccc34)ncc21)NCC1CC1 [Example 70, (R)-2-(2-(1H-indol-4-yl)-6a,7,9,10-tetrahydro-[1,4]oxazino[3,4-h]pteridin-5(6H)-yl)-N-(cyclopropylmethyl)acetamide] | 200 nM
CC(C)(O)CNC(=O)CN1C[C@@H]2COCCN2c2nc(-c3cccc4[nH]ccc34)ncc21 [Example 71, (R)-2-(2-(1H-indol-4-yl)-6a,7,9,10-tetrahydro-[1,4]oxazino[3,4-h]pteridin-5(6H)-yl)-N-(2-hydroxy-2-methylpropyl)acetamide] | 398 nM
O=C(CN1C[C@@H]2COCCN2c2nc(-c3cccc4[nH]ccc34)ncc21)NCc1cc[nH]n1 [Example 72, (R)-2-(2-(1H-indol-4-yl)-6a,7,9,10-tetrahydro-[1,4]oxazino[3,4-h]pteridin-5(6H)-yl)-N-((1H-pyrazol-3-yl)methyl)acetamide] | 126 nM
O=C(CN1C[C@@H]2COCCN2c2nc(-c3cccc4[nH]ccc34)ncc21)NCC1CCOCC1 [Example 73, (R)-2-(2-(1H-indol-4-yl)-6a,7,9,10-tetrahydro-[1,4]oxazino[3,4-h]pteridin-5(6H)-yl)-N-((tetrahydro-2H-pyran-4-yl)methyl)acetamide] | 20 nM
NC(=O)c1ccccc1CN1CC2COCCN2c2nc(-c3cccc4[nH]ccc34)ncc21 (centres unmarked) [Example 74, 2-((2-(1H-indol-4-yl)-6a,7,9,10-tetrahydro-[1,4]oxazino[3,4-h]pteridin-5(6H)-yl)methyl)benzamide] | 63.1 nM
NC(=O)c1ccc(F)cc1CN1CC2COCCN2c2nc(-c3cccc4[nH]ccc34)ncc21 (centres unmarked) [Example 75, 2-((2-(1H-indol-4-yl)-6a,7,9,10-tetrahydro-[1,4]oxazino[3,4-h]pteridin-5(6H)-yl)methyl)-4-fluorobenzamide] | 316 nM
NC(=O)c1cccc(CN2CC3COCCN3c3nc(-c4cccc5[nH]ccc45)ncc32)c1 (centres unmarked) [Example 76, 3-((2-(1H-indol-4-yl)-6a,7,9,10-tetrahydro-[1,4]oxazino[3,4-h]pteridin-5(6H)-yl)methyl)benzamide] | 31.6 nM
NC(=O)c1ccc(F)c(CN2CC3COCCN3c3nc(-c4cccc5[nH]ccc45)ncc32)c1 (centres unmarked) [Example 77, 3-((2-(1H-indol-4-yl)-6a,7,9,10-tetrahydro-[1,4]oxazino[3,4-h]pteridin-5(6H)-yl)methyl)-4-fluorobenzamide] | 50.1 nM
NC(=O)c1ccc(CN2CC3COCCN3c3nc(-c4cccc5[nH]ccc45)ncc32)cc1 (centres unmarked) [Example 78, 4-((2-(1H-indol-4-yl)-6a,7,9,10-tetrahydro-[1,4]oxazino[3,4-h]pteridin-5(6H)-yl)methyl)benzamide] | 20 nM
COc1cc(C(N)=O)ccc1CN1CC2COCCN2c2nc(-c3cccc4[nH]ccc34)ncc21 (centres unmarked) [Example 79, 4-((2-(1H-indol-4-yl)-6a,7,9,10-tetrahydro-[1,4]oxazino[3,4-h]pteridin-5(6H)-yl)methyl)-3-methoxybenzamide] | 50.1 nM
Cc1cccc(CN2CC3COCCN3c3nc(-c4cccc5[nH]ccc45)ncc32)n1 (centres unmarked) [Example 80] | 63.1 nM
c1cc(-c2ncc3c(n2)N2CCOCC2CN3Cc2nnc(C3CC3)o2)c2cc[nH]c2c1 (centres unmarked) [Example 81, 5-((5-cyclopropyl-1,3,4-oxadiazol-2-yl)methyl)-2-(1H-indol-4-yl)-5,6,6a,7,9,10-hexahydro-[1,4]oxazino[3,4-h]pteridine] | 15.8 nM
O=C(CN1C[C@@H]2COCCN2c2nc(-c3cccc(CO)c3)ncc21)NCC1CCOCC1 [Example 82, (R)-2-(2-(3-(hydroxymethyl)phenyl)-6a,7,9,10-tetrahydro-[1,4]oxazino[3,4-h]pteridin-5(6H)-yl)-N-((tetrahydro-2H-pyran-4-yl)methyl)acetamide] | 12.6 nM
CC(C)(O)c1cccc(-c2ncc3c(n2)N2CCOC[C@H]2CN3CC(=O)NCC2CCOCC2)c1 [Example 83, (R)-2-(2-(3-(2-hydroxypropan-2-yl)phenyl)-6a,7,9,10-tetrahydro-[1,4]oxazino[3,4-h]pteridin-5(6H)-yl)-N-((tetrahydro-2H-pyran-4-yl)methyl)acetamide] | 1000 nM
CNC(=O)Nc1ccc(-c2ncc3c(n2)N2CCOCC2C(=O)N3[C@H](C)c2ccc(Cl)cc2)cc1 (stereo partly drawn) [Example 84, 1-(4-(5-((R)-1-(4-chlorophenyl)ethyl)-6-oxo-5,6,6a,7,9,10-hexahydro-[1,4]oxazino[3,4-h]pteridin-2-yl)phenyl)-3-methylurea] | 126 nM
CNC(=O)Nc1ccc(-c2ncc3c(n2)N2CCOCC2C(=O)N3Cc2ccc(C(=O)OC)cc2)cc1 (centres unmarked) [Example 88, methyl 4-((2-(4-(3-methylureido)phenyl)-6-oxo-6a,7,9,10-tetrahydro-[1,4]oxazino[3,4-h]pteridin-5(6H)-yl)methyl)benzoate] | 6.31 nM
CNC(=O)Nc1ccc(-c2ncc3c(n2)N2CCOCC2C(=O)N3Cc2ccc(Cl)cc2)cc1 (centres unmarked) [Example 89, 1-(4-(5-(4-chlorobenzyl)-6-oxo-5,6,6a,7,9,10-hexahydro-[1,4]oxazino[3,4-h]pteridin-2-yl)phenyl)-3-methylurea] | 63.1 nM
CNC(=O)Nc1ccc(-c2ncc3c(n2)N2CCOCC2C(=O)N3Cc2cccc(-n3cccc3)c2)cc1 (centres unmarked) [Example 90, 1-(4-(5-(3-(1H-pyrrol-1-yl)benzyl)-6-oxo-5,6,6a,7,9,10-hexahydro-[1,4]oxazino[3,4-h]pteridin-2-yl)phenyl)-3-methylurea] | 5.01 nM

From patent US8791107B2, “N-substituted oxazinopteridines and oxazinopteridinones” (Takeda Pharmaceutical Company Limited, priority 2011, dated 2014)
